Experimental data: patent US9006139B2, “Active compound combinations” (Bayer Intellectual Property GmbH, priority 2009, dated 2015)
Like-named read-outs stand apart in the source and are kept apart here.

Legend:
Type in all cases: in vivo
Phytophthora infestans = test: whole plant or invertebrate; settings: Phytophthora infestans, 72 h; for pest or weed control at 12.5 ppm: 12.5 ppm a.i.; for pest or weed control at 50 ppm: 50 ppm a.i.; for pest or weed control at 10 ppm: 10 ppm a.i.; for pest or weed control at 20 ppm: 20 ppm a.i.
Venturia inaequalis = test: Venturia test (apples)/protective; settings: Table D
Description: (§1) Solvent: 24.5 parts by weight of acetone
(§2) • 24.5 parts by weight of dimethylacetamide Emulsifier: 1 part by weight of alkylaryl polyglycol ether
(§3) To produce a suitable preparation of active compound, 1 part by weight of active compound is mixed with the stated amounts of solvent and emulsifier, and the concentrate is diluted with water to the desired concentration. To test for protective activity, young plants are sprayed with the preparation of active compound at the stated rate of application. After the spray coating has dried on, the plants are inoculated with an aqueous conidia suspension of the causal agent of apple scab (Venturia inaequalis) and then remain for 1 day in an incubation cabinet at approximately 20° C. and a relative atmospheric humidity of 100%. The plants are then placed in a greenhouse at approximately 21° C. and a relative atmospheric humidity of approximately 90%. The test is evaluated 10 days after the inoculation. 0% means an efficacy which corresponds to that of the control, while an efficacy of 100% means that no disease is observed.

Leptosphaeria nodorum = Leptosphaeria nodorum test (wheat)/preventive; settings: Parastagonospora nodorum, 192 h, Table K, read-out: Efficacy in % found
Description: (§4) Solvent: 49 parts by weight of n,n-dimethylacetamid
(§5) Emulsifier: 1 part by weight of alkylaryl polyglycol ether
(§6) To produce a suitable preparation of active compound, 1 part by weight of active compound or active compound combination is mixed with the stated amounts of solvent and emulsifier, and the concentrate is diluted with water to the desired concentration. To test for preventive activity, young plants are sprayed with the preparation of active compound or active compound combination at the stated rate of application. After the spray coating has been dried, the plants are sprayed with a spore suspension of Leptosphaeria nodorum. The plants remain for 48 hours in an incubation cabinet at approximately 20° C. and a relative atmospheric humidity of approximately 100%. The plants are placed in the greenhouse at a temperature of approximately 22° C. and a relative atmospheric humidity of approximately 80%. The test is evaluated 8 days after the inoculation. 0% means an efficacy which corresponds to that of the untreated control, while an efficacy of 100% means that no disease is observed.

[1] = system: Blumeria graminis fsp. tritici; test: Blumeria test (wheat)/preventive; settings: Table G; 500 ppm a.i.
Description: as §4, §5
To produce a suitable preparation of active compound, 1 part by weight of active compound or active compound combination is mixed with the stated amounts of solvent and emulsifier, and the concentrate is diluted with water to the desired concentration. To test for preventive activity, young plants are sprayed with the preparation of active compound or active compound combination at the stated rate of application. After the spray coating has been dried, the plants are dusted with spores of Blumeria graminis fsp. tritici. The plants are placed in the greenhouse at a temperature of approximately 18° C. and a relative atmospheric humidity of approximately 80% to promote the development of mildew pustules. The test is evaluated 7 days after the inoculation. 0% means an efficacy which corresponds to that of the untreated control, while an efficacy of 100% means that no disease is observed.

Sphaerotheca fuliginea = test: Sphaerotheca test (cucumbers)/protective; settings: Podosphaera fuliginea, 168 h, Table C, read-out: Efficacy in % found; for pest or weed control at 50 ppm: 50 ppm a.i.; for pest or weed control at 200 ppm: 200 ppm a.i.; for pest or weed control at 100 ppm: 100 ppm a.i.
Summary of the method: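 Young cucumber plants sprayed protectively with compound in acetone/dimethylacetamide with emulsifier, water-diluted, at the stated rate. After drying, plants inoculated with Sphaerotheca fuliginea spores and kept at ~23° C and ~70% RH. Efficacy scored at 7 days: 0% = untreated control, 100% = no disease.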

Plasmopara viticola = test: Plasmopara test (grapevines)/protective; settings: Table B; 50 ppm a.i.
Description: as §1, §2
as §3, with “aqueous spore” for “aqueous conidia”, “of Plasmopara viticola” for “of the causal agent of apple scab (Venturia inaequalis)”, “The plant is subsequently” for “The plants are then”, “placed for 4 days” for “placed”, “The plants are then misted and placed for 1 day in an incubation cabinet. The” for “The”, “evaluated 6” for “evaluated 10”

Pyrenophora teres = test: Pyrenophora teres-test (barley)/preventive
Description: as §4, §5
as §6, with “Pyrenophora teres.” for “Leptosphaeria nodorum.”, “20°” for “22°”

[2] = read-out: Efficacy in % found, Table A, test 1
[3] = read-out: Efficacy in % found, Table A, test 5
[4] = read-out: Efficacy in % found, Table A, test 6

With `Cn1c(=O)c2sc3c(=O)n(C)c(=O)c3sc2c1=O` [(I-1), 2,6-dimethyl-1H,5H-[1,4]dithiino[2,3-c:5,6-c′]dipyrrole-1,3,5,7(2H,6H)-tetrone] the pest or weed control at 12.5 ppm (Phytophthora infestans; [2]) was 0%, the pest or weed control at 25 ppm (Phytophthora infestans; read-out: Efficacy in % found, Table A, test 1, 25 ppm a.i.) was 5% and the pest or weed control at 50 ppm (Phytophthora infestans; [2]) was 18%. The pest or weed control at 12.5 ppm (Phytophthora infestans; read-out: Efficacy in % found, Table A, test 2) was 35%, the pest or weed control at 50 ppm (Phytophthora infestans; read-out: Efficacy in % found, Table A, test 3) was 36% and the pest or weed control at 50 ppm (Phytophthora infestans; read-out: Efficacy in % found, Table A, test 4) was 47%. It also gave a pest or weed control at 10 ppm (Phytophthora infestans; [3]) of 0%, a pest or weed control at 20 ppm (Phytophthora infestans; [3]) of 0% and a pest or weed control at 10 ppm (Phytophthora infestans; [4]) of 0%. For the same molecule, the pest or weed control at 20 ppm (Phytophthora infestans; [4]) was 9%, the pest or weed control at 40 ppm (Phytophthora infestans; read-out: Efficacy in % found, Table A, test 6, 40 ppm a.i.) was 11% and the pest or weed control at 12.5 ppm (Phytophthora infestans; read-out: Efficacy in % found, Table A, test 7) was 39%. The “Efficacy in % found” value (Venturia inaequalis; test 1, 12.5 ppm a.i.) was 26%, the “Efficacy in % found” value (Venturia inaequalis; test 1, 25 ppm a.i.) was 72% and the “Efficacy in % found” value (Venturia inaequalis; test 2, 12.5 ppm a.i.) was 14%. For the same molecule, the pest or weed control at 500 ppm (Leptosphaeria nodorum; 500 ppm a.i.) was 13%, the pest or weed control at 1000 ppm (Leptosphaeria nodorum; 1000 ppm a.i.) was 11% and the “Efficacy in % found” value [1] was 75%. It also gave a pest or weed control at 50 ppm (Sphaerotheca fuliginea; test 1) of 0%, a pest or weed control at 200 ppm (Sphaerotheca fuliginea; test 1) of 30% and a pest or weed control at 50 ppm (Sphaerotheca fuliginea; test 2) of 38%. The pest or weed control at 200 ppm (Sphaerotheca fuliginea; test 2) was 65%, the pest or weed control at 50 ppm (Sphaerotheca fuliginea; test 3) was 20% and the pest or weed control at 100 ppm (Sphaerotheca fuliginea; test 3) was 30%. The pest or weed control at 100 ppm (Sphaerotheca fuliginea; test 4) was 19%, the “Efficacy in % found” value (Plasmopara viticola) was 54% and the “Efficacy in % found” value (Pyrenophora teres; Table I1, 500 ppm a.i.) was 10%. For the same molecule, the “Efficacy in % found” value (Pyrenophora teres; Table I1, 1000 ppm a.i.) was 44% and the “Efficacy in % found” value (Pyrenophora teres; Table I2, 1000 ppm a.i.) was 22%.
